pIC50: −log10 of the molar value. Where a name gives a salt, the structure may show the parent alone.
These compounds were tested against T1, human recombinant DPP-IV (Homo sapiens, UniProt P27487) (assay: Inhibition of human recombinant DPP-IV (Gly-Pro-AMC hydrolysis, fluorometric)). Conditions: compound 10 nM; relative to vehicle controls.
T1 construct: purchased R&D Systems, USA (or produced in-house)
Format: biochemical
Method: Inhibition of Human Recombinant DPP-IV
The proteolytic activity of human recombinant DPP-IV was determined by following the hydrolysis of Gly-Pro-7-amino-4-methylcoumarin (Gly-Pro-AMC) and the fluorometric quantitation of the liberated AMC. Assays were routinely carried out in 96-well flat-bottom black microwell plates. The reaction mixture (100 μl) contained 10 ng of human recombinant DPP-IV enzyme (produced in-house or procured from R&D Systems, USA) in the assay buffer (25 mM Tris-HCl, pH 7.4, 140 mM NaCl, 10 mM KCl and 0.1 mg/ml BSA) and 50 μM Gly-Pro-AMC. After incubation of assay plates at 30° C. for 30 min, the hydrolysis of Gly-Pro-AMC was monitored in a fluorescence microplate reader (Molecular Devices SpectraMax M5), with excitation and emission wavelengths set at 360 nm and 460 nm, respectively.
The inhibition of DPP-IV activity by test compounds was routinely performed by preincubating the enzyme with test compound (10 and 100 nM for primary screening and 8 concentrations from 0.1 to 1000 nM for the dose-response study) or vehicle (0.01% DMSO) for 15 min at 30° C., in a total volume of 90 μl. Test compounds were dissolved in DMSO at a concentration of 10 mM and serially diluted further in assay buffer. The enzyme reaction was initiated by the addition of Gly-Pro-AMC, followed by incubation of assay plates for 30 min at 30° C. and the liberated AMC was measured as described above. A known inhibitor of DPP-IV (positive control) was always included in the assay. Test compounds at various concentrations were always evaluated in duplicate, along with substrate blanks, vehicle controls and positive controls.
The results are expressed as percent inhibition of the enzyme activity relative to vehicle controls. Dose-response studies were conducted for those compounds exerting ≧50% inhibition of activity at 10 nM in primary screening. IC50, defined as the inhibitor concentration which caused a 50% decrease of the activity under assay conditions, was computed using GraphPad Prism software, version 5.0.
The DPP-IV inhibition data (expressed either as IC50 in nanomolar or percent inhibition at a particular compound concentration) is presented in Table 1.

T1 sequence (P27487 whole entry): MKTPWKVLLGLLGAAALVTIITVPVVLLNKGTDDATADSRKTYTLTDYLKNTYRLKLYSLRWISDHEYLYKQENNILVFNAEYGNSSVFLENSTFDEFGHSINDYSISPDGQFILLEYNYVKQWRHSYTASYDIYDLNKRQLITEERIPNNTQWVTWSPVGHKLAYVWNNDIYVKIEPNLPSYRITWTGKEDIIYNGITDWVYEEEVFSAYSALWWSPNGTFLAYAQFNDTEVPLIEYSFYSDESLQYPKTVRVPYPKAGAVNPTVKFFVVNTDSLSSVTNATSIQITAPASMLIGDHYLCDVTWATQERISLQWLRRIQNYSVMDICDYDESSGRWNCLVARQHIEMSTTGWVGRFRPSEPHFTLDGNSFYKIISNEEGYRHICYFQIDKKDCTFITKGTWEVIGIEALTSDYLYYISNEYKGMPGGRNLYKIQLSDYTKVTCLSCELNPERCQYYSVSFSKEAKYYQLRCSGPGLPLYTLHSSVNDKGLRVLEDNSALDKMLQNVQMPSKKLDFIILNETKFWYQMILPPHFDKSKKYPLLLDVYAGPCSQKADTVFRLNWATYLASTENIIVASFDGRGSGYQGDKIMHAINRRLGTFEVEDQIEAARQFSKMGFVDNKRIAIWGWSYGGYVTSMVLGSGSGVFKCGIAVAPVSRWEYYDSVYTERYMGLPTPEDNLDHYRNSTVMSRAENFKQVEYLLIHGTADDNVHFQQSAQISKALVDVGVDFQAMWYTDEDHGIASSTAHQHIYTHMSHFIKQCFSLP

Row | Compound | % inhibition at 10 nM [% inhibition at 10 nM]
1 | N#C[C@H]1C[C@H]2C[C@H]2N1C(=O)[C@H](N)C1CC2CCC(C1)N2C(=O)c1ccnc(F)c1.O=C(O)C(F)(F)F (stereo partly drawn) [Compound 30, (1R,3R,5R)-2-{(2R)-2-Amino-2-[8-(2-fluoropyridine-4-carbonyl)-8-aza-bicyclo[3.2.1]oct-3-yl]-exo-ethanoyl}-2-azabicyclo[3.1.0]hexane-3-carbonitrile trifluoroacetic acid salt] | 0
2 | N#C[C@@H]1C[C@@H]2C[C@@H]2N1C(=O)[C@H](N)C1CC2CCC(C1)N2C(=O)c1ccnc(F)c1.O=C(O)C(F)(F)F (stereo partly drawn) [Compound 31, (1S,3S,5S)-2-{(2R)-2-Amino-2-[8-(2-fluoropyridine-4-carbonyl)-8-aza-bicyclo[3.2.1]oct-3-yl]-exo-ethanoyl}-2-azabicyclo[3.1.0]hexane-3-carbonitrile trifluoroacetic acid salt] | 6
3 | N#C[C@@H]1C[C@@H]2C[C@@H]2N1C(=O)[C@H](N)C1CC2CCC(C1)N2C(=O)c1cnccn1.O=C(O)C(F)(F)F (stereo partly drawn) [Compound 36, (1S,3S,5S)-2-{(2R)-2-Amino-2-[8-(pyrazine-2-carbonyl)-8-aza-bicyclo[3.2.1]oct-3-yl]-exo-ethanoyl}-2-azabicyclo[3.1.0]hexane-3-carbonitrile trifluoroacetic acid salt] | 17
4 | N#C[C@H]1C[C@H]2C[C@H]2N1C(=O)[C@@H](N)C1CC2CCC(C1)N2C(=O)c1cnccn1.O=C(O)C(F)(F)F (stereo partly drawn) [Compound 37, (1R,3R,5R)-2-{(2S)-2-Amino-2-[8-(pyrazine-2-carbonyl)-8-aza-bicyclo[3.2.1]oct-3-yl]-exo-ethanoyl}-2-azabicyclo[3.1.0]hexane-3-carbonitrile trifluoroacetic acid salt] | 7
5 | N#C[C@@H]1C[C@@H]2C[C@@H]2N1C(=O)[C@@H](N)C1CC2CCC(C1)N2C(=O)c1ccco1.O=C(O)C(F)(F)F (stereo partly drawn) [Compound 40, (1S,3S,5S)-2-{(2S)-2-Amino-2-[8-(furan-2-carbonyl)-8-aza-bicyclo[3.2.1]oct-3-yl]-exo-ethanoyl}-2-azabicyclo[3.1.0]hexane-3-carbonitrile trifluoroacetic acid salt] | 44
6 | N#C[C@@H]1C[C@@H]2C[C@@H]2N1C(=O)[C@@H](N)C1CC2CCC(C1)N2CCC(F)(F)F.O=C(O)C(F)(F)F (stereo partly drawn) [Compound 47, (1S,3S,5S)-2-{(2S)-2-Amino-2-[8-(3,3,3-trifluoropropyl)-8-aza-bicyclo[3.2.1]oct-3-yl]-exo-ethanoyl}-2-azabicyclo[3.1.0]hexane-3-carbonitrile trifluoroacetic acid salt] | 29
7 | N#C[C@@H]1C[C@@H]2C[C@@H]2N1C(=O)[C@@H](N)C1CC2CCC(C1)N2CC1CCCCC1.O=C(O)C(F)(F)F (stereo partly drawn) [Compound 48, (1S,3S,5S)-2-{(2S)-2-Amino-2-[8-(cyclohexylmethyl)-8-aza-bicyclo[3.2.1]oct-3-yl]-exo-ethanoyl}-2-azabicyclo-[3.1.0]hexane-3-carbonitrile trifluoroacetic acid salt] | 22

Same assay, conditions: compound 100 nM; relative to vehicle controls

Row | Compound | % inhibition at 100 nM [% inhibition at 100 nM]
8 | N#C[C@H]1C[C@H]2C[C@H]2N1C(=O)[C@H](N)C1CC2CCC(C1)N2C(=O)c1cnccn1.O=C(O)C(F)(F)F (stereo partly drawn) [Compound 38, (1R,3R,5R)-2-{(2R)-2-Amino-2-[8-(pyrazin-2-carbonyl)-8-aza-bicyclo[3.2.1]oct-3-yl]-exo-ethanoyl}-2-azabicyclo[3.1.0]hexane-3-carbonitrile trifluoroacetic acid salt] | 16
9 | N#C[C@@H]1C[C@@H]2C[C@@H]2N1C(=O)[C@@H](N)C1CC2CCC(C1)N2C(=O)C12CC3CC(CC(C3)C1)C2.O=C(O)C(F)(F)F (stereo partly drawn) [Compound 43, (1S,3S,5S)-2-{(2S)-2-Amino-2-[8-(adamantane-1-carbonyl)-8-aza-bicyclo[3.2.1]oct-3-yl]-exo-ethanoyl}-2-azabicyclo[3.1.0]hexane-3-carbonitrile trifluoroacetic acid salt] | 49
10 | N#C[C@@H]1C[C@@H]2C[C@@H]2N1C(=O)[C@@H](N)C1CC2CCC(C1)N2CC12CC3CC(CC(C3)C1)C2.O=C(O)C(F)(F)F (stereo partly drawn) [Compound 49, (1S,3S,5S)-2-{(2S)-2-Amino-2-[8-(adamantan-1-ylmethyl)-8-aza-bicyclo[3.2.1]oct-3-yl]-exo-ethanoyl}-2-azabicyclo[3.1.0]hexane-3-carbonitrile trifluoroacetic acid salt] | 60

Same assay, conditions: compound 1000 nM; relative to vehicle controls; read-out: % inhibition at 1000 nM

Row | Compound | inhibition at 1 µM [%]
11 | N[C@H](C(=O)N1[C@H](C(=O)O)C[C@@H]2C[C@@H]21)C1CC2CCC(C1)N2C(=O)c1ccc2c(c1)OCO2 (stereo partly drawn) [Compound 46, (1S,3S,5S)-2-{(2S)-2-Amino-2-[8-(benzo[1,3]-dioxole-5-carbonyl)-8-aza-bicyclo[3.2.1]-oct-3-yl]-exo-ethanoyl}-2-azabicyclo[3.1.0]hexane-3-carboxylic acid hydrochloride] | 13

Same assay, conditions: human recombinant DPP-IV, 50 μM Gly-Pro-AMC, 30 min at 30° C.

Row | Compound | pIC50
12 | N#C[C@@H]1C[C@@H]2C[C@@H]2N1C(=O)[C@@H](N)C1CC2CCC(C1)N2C(=O)c1cccnc1F (stereo partly drawn) [Compound 32, (1S,3S,5S)-2-{(2S)-2-Amino-2-[8-(2-fluoropyridine-3-carbonyl)-8-aza-bicyclo[3.2.1]oct-3-yl]-exo-ethanoyl}-2-azabicyclo[3.1.0]hexane-3-carbonitrile trifluoroacetic acid salt] | 8.16
13 | N#C[C@@H]1C[C@@H]2C[C@@H]2N1C(=O)[C@@H](N)C1CC2CCC(C1)N2C(=O)c1cccnc1 (stereo partly drawn) [Compound 33, (1S,3S,5S)-2-{(2S)-2-Amino-2-[8-(pyridine-3-carbonyl)-8-aza-bicyclo[3.2.1]oct-3-yl]-exo-ethanoyl}-2-azabicyclo[3.1.0]hexane-3-carbonitrile di trifluoroacetic acid salt] | 8.03
14 | N#C[C@@H]1C[C@@H]2C[C@@H]2N1C(=O)[C@@H](N)C1CC2CCC(C1)N2C(=O)c1cccs1 (stereo partly drawn) [Compound 34, (1S,3S,5S)-2-{(2S)-2-Amino-2-[8-(thiophene-2-carbonyl)-8-aza-bicyclo[3.2.1]oct-3-yl]-exo-ethanoyl}-2-azabicyclo[3.1.0]hexane-3-carbonitrile trifluoroacetic acid salt] | 7.89
15 | N#C[C@@H]1C[C@@H]2C[C@@H]2N1C(=O)[C@@H](N)C1CC2CCC(C1)N2C(=O)c1ccccn1 (stereo partly drawn) [Compound 39, (1S,3S,5S)-2-{(2S)-2-Amino-2-[8-(pyridine-2-carbonyl)-8-aza-bicyclo[3.2.1]oct-3-yl]-exo-ethanoyl}-2-azabicyclo[3.1.0]hexane-3-carbonitrile trifluoroacetic acid salt] | 7.93
16 | N#C[C@@H]1C[C@@H]2C[C@@H]2N1C(=O)[C@@H](N)C1CC2CCC(C1)N2C(=O)c1ccncc1F (stereo partly drawn) [Compound 41, (1S,3S,5S)-2-{(2S)-2-Amino-2-[8-(3-fluoropyridine-4-carbonyl)-8-aza-bicyclo[3.2.1]oct-3-yl]-exo-ethanoyl}-2-azabicyclo[3.1.0]hexane-3-carbonitrile trifluoroacetic acid salt] | 8.31
17 | N#C[C@@H]1C[C@@H]2C[C@@H]2N1C(=O)[C@@H](N)C1CC2CCC(C1)N2S(=O)(=O)c1cc(F)cc(F)c1 (stereo partly drawn) [Compound 42, (1S,3S,5S)-2-{(2S)-2-Amino-2-[8-(3,5-difluorobenzenesulfonyl)-8-aza-bicyclo[3.2.1]oct-3-yl]-exo-ethanoyl}-2-azabicyclo[3.1.0]hexane-3-carbonitrile trifluoroacetic acid salt] | 8.05
18 | N#C[C@@H]1C[C@@H]2C[C@@H]2N1C(=O)[C@@H](N)C1CC2CCC(C1)N2C(=O)c1ccc2c(c1)OCO2 (stereo partly drawn) [Compound 44, (1S,3S,5S)-2-{(2S)-2-Amino-2-[8-(benzo[1,3]-dioxole-5-carbonyl)-8-aza-bicyclo[3.2.1]oct-3-yl]-exo-ethanoyl}-2-azabicyclo[3.1.0]-hexane-3-carbonitrile trifluoroacetic acid salt] | 8.62

Same assay, conditions: read-out: % inhibition at 1000 nM

Row | Compound | inhibition at 1 µM [%]
19 | NC(=O)[C@@H]1C[C@@H]2C[C@@H]2N1C(=O)[C@@H](N)C1CC2CCC(C1)N2C(=O)c1ccc2c(c1)OCO2 (stereo partly drawn) [Compound 45, (1S,3S,5S)-2-{(2S)-2-Amino-2-[8-(benzo-[1,3]dioxole-5-carbonyl)-8-aza-bicyclo[3.2.1]oct-3-yl]-exo-ethanoyl}-2-azabicyclo[3.1.0]-hexane-3-carboxamide trifluoro acetic acid salt] | 12

— patent publication US8338450B2, “Compounds as dipeptidyl peptidase IV (DPP IV) inhibitors” (Lupin Limited, priority 2007, dated 2012)
